Results as given in patent US7795226B2, “Control of radiation injury” (Biotempt B.V., priority 2006, dated 2010).

Experiments:
[1] = system: LPS (E. coli 026:B6)-induced septic shock in BALB/c mice; assay: LPS-induced septic shock, single dose of peptide; format: in vivo; conditions: single dose 5 mg/kg
Protocol: (§1) Mice used in sepsis or septic shock experiments: Female BALB/c mice of eight to twelve weeks of age were used for all experiments. The animals were bred in our facility under specific pathogen-free conditions according to the protocols described in the […] of European Laboratory Animal Science Associations (FELASA) Working group on Animal Health (Laboratory Animals 28:1-24, 1994).
(§2) Injection protocols: For the endotoxin model, BALB/c mice were injected i.p. with 150-300 μg LPS (E. coli 026:B6; Difco Lab., Detroit, Mich., USA). Control groups were treated with PBS i.p. only. To test the effect of peptides, they were dissolved in PBS and injected i.p. at predetermined points in time after LPS treatment.
(§3) Mice were scored for sickness severity using the following measurement scheme: • 0 No abnormalities. • 1 Percolated fur, but no detectable behavior differences compared to normal mice. • 2 Percolated fur, huddle reflex, responds to stimuli (such as tap on cage), just as active during handling as healthy mouse. • 3 Slower response to tap on cage, passive or docile when handled, but still curious when alone in a new setting. • 4 Lack of curiosity, little or no response to stimuli, quite immobile. • 5 Labored breathing, inability or slow to self-right after being rolled onto back (moribund, sacrificed). • D Dead.
A first set of septic shock experiments were set up to determine which of the peptides LQG, LQGV (SEQ ID NO:117), VLPALP (SEQ ID NO:140), VLPALPQ (SEQ ID NO:143), MTR, MTRV (SEQ ID NO:119), VVC or QVVC (SEQ ID NO:118) were capable of inhibiting lipopolysaccharide (LPS)-induced septic shock in mice by treating mice with a single dose of peptide at two hours after LPS treatment. Peptides were used at 5 mg/kg bodyweight. BALB/c mice were injected i.p. with escalating doses LPS (E. coli 026:B6; Difco Lab., Detroit, Mich. USA), predetermined to be leading to 80 to 100% mortality in 24 to 72 hours.
To test the effect of peptide early in the development of shock, mice were treated at two hours or at 24 hours after treatment with varying doses of LPS by i.p. injection with test peptide at 5 mg/kg bodyweight.

[2] = system: high dose LPS (E. coli 026:B6)-induced septic shock in BALB/c mice; assay: high dose LPS-induced septic shock, peptide administered twice; format: in vivo; conditions: peptide twice (t = 2 and 24 hours) 5 mg/kg
Protocol: as §1, §2, §3
A second set of septic shock experiments were set up to determine which of the peptides LQG, LQGV (SEQ ID NO:117), VLPALP (SEQ ID NO:140), VLPALPQ (SEQ ID NO:143), MTR, MTRV (SEQ ID NO:119), VVC or AQG, AQGV (SEQ ID NO:120), LAG and LAGV (SEQ ID NO:121) were capable of inhibiting high dose LPS-induced septic shock in mice by treating mice with a double dose of peptide at two and 24 hours after LPS treatment. At each treatment, peptides were used at 5 mg/kg bodyweight. BALB/c mice were injected i.p. with high doses LPS (E. coli 026:B6; Difco Lab., Detroit, Mich. USA), predetermined to be leading to 80 to 100% mortality in 24 to 72 hours.

[3] = system: LPS (E. coli 026:B6)-induced sepsis in BALB/c mice; assay: endotoxin shock survival after early or late treatment with peptide; format: in vivo
Protocol: as §1, §2
A further set of septic shock experiments were set up to determine which of the peptides LQG, LQGV (SEQ ID NO:117), VLPALP (SEQ ID NO:140), VLPALPQ (SEQ ID NO:143), MTR, MTRV (SEQ ID NO:119), VVC or AQGV (SEQ ID NO:120) under study were most suited to be used early and/or late after or throughout the development of shock. For determining the percent of endotoxin shock survival after late or early treatment with peptide, BALB/c mice were injected i.p. with 300 μg LPS (E. coli 026:B6; Difco Lab., Detroit, Mich. USA), predetermined to be leading to 100% mortality in 48 hours without peptide treatment.
To evaluate the effect of peptide treatment at an early or late point in time of development of shock, mice were treated at two hours or at 24 hours after LPS injection by i.p. injection with test peptide at 5 mg/kg bodyweight. The mice were followed for 84 hours instead of for 48 hours in the earlier experiments.

[4] = system: cell-cycle marker pCDG and auxin-responsive marker DR5::GUS; assay: Arabidopsis thaliana seedling cell-cycle analysis (GUS markers)
Protocol: To further study anti-cell-cycle activity of various oligopeptides, a proliferation experiment in Arabidopsis Thaliana seedlings was performed. The aim was to test a group of 140 oligopeptides of varying length for their effect on plant marker gene expression during rapid growth when avid cell division occurs.
The peptides were re-suspended in 1× Phosphate Buffer Saline (PBS) pH 8 to a final concentration of 5 mg/ml. The obtained solutions were then divided through 96-well round bottom plates (Corning Incorporated) at 40 microliters per well. Plates were stored before use at […] for four days. Seeds of Arabidopsis thaliana ecotype Ws-0 were surface sterilized in 2% commercial bleach (Gloria) for ten minutes and washed five times with sterile MQ water. The seeds were then re-suspended with 0.1% agar and plated on MS20 plates supplemented with 80 mg/l Kanamycin.
The plates were placed at […] for two nights and then transferred to a climate room at […] and a 16/8 hours photoperiod. After four days of growth, the seedlings were transferred to 96-well plates containing the peptide solutions (four seedlings per well) and incubated for four and eight hours.
For this experiment, Arabidopsis homozygous seedlings harboring two reporter genes fused to GUS were used. […] After incubation with the compounds, the seedlings were stained for GUS. The staining reaction was performed in 100 mM sodium phosphate buffer (pH 7.0) that contained 10 mM EDTA, 10% DMSO, 0.1% Triton X-100, 2 mM X-Gluc, 0.5 mM K3Fe(CN)6 and 0.5 mM K4Fe(CN)6 at […] for 16 hours. […] Seedlings were fixed and cleared in chloral hydrate solution for detailed microscopic observation and photography under a microscope equipped with DIC optics.
Peptides were tested for an effect on marker gene expression on rapidly growing Arabidopsis young seedlings. This was monitored by changes on GUS distribution in different organs: root, root-hypocotyl transition zone and cotyledons.

VVC
mice scored D (dead), effect at t = 24 hours ([1]; LPS dose 7**): 1
mice scored D (dead), effect at t = 48 hours ([1]; LPS dose 7**): 3
mice with sickness score 1, effect at t = 48 hours ([1]; LPS dose 7**): 1
mice with sickness score 2, effect at t = 48 hours ([1]; LPS dose 7**): 1
mice with sickness score 3, effect at t = 24 hours ([1]; LPS dose 7**): 2
mice with sickness score 3, effect at t = 48 hours ([1]; LPS dose 7**): 1
mice with sickness score 4, effect at t = 24 hours ([1]; LPS dose 7**): 1
mice with sickness score 5, effect at t = 24 hours ([1]; LPS dose 7**): 2
mice with sickness score 2, effect at t = 48 hours ([1]; LPS dose 7*): 4
mice with sickness score 3, effect at t = 24 hours ([1]; LPS dose 7*): 4
mice with sickness score 4, effect at t = 24 hours ([1]; LPS dose 7*): 2
mice with sickness score 5, effect at t = 48 hours ([1]; LPS dose 7*): 2
mice with sickness score 1, effect at t = 48 hours ([1]; LPS dose 10): 2
mice with sickness score 2, effect at t = 24 hours ([1]; LPS dose 10): 2
mice with sickness score 2, effect at t = 48 hours ([1]; LPS dose 10): 2
mice with sickness score 3, effect at t = 24 hours ([1]; LPS dose 10): 2
mice with sickness score 4, effect at t = 24 hours ([1]; LPS dose 10): 2
mice with sickness score 5, effect at t = 48 hours ([1]; LPS dose 10): 2
mice with sickness score 1, effect at t = 48 hours ([2]; LPS dose 10.5): 2
mice with sickness score 2, effect at t = 24 hours ([2]; LPS dose 10.5): 5
mice with sickness score 2, effect at t = 48 hours ([2]; LPS dose 10.5): 3
mice with sickness score 1, effect at t = 48 hours ([2]; LPS dose 11): 2
mice with sickness score 2, effect at t = 24 hours ([2]; LPS dose 11): 6
mice with sickness score 2, effect at t = 48 hours ([2]; LPS dose 11): 4
% Survival ([3]; 0 hours, peptide 5 mg/kg 2 hours after LPS): 100%
% Survival ([3]; 0 hours, peptide 5 mg/kg 24 hours after LPS): 100%
% Survival ([3]; 14 hours, peptide 5 mg/kg 2 hours after LPS): 100%
% Survival ([3]; 14 hours, peptide 5 mg/kg 24 hours after LPS): 100%
% Survival ([3]; 24 hours, peptide 5 mg/kg 2 hours after LPS): 100%
% Survival ([3]; 24 hours, peptide 5 mg/kg 24 hours after LPS): 100%
% Survival ([3]; 48 hours, peptide 5 mg/kg 2 hours after LPS): 80%
% Survival ([3]; 48 hours, peptide 5 mg/kg 24 hours after LPS): 100%
% Survival ([3]; 84 hours, peptide 5 mg/kg 2 hours after LPS): 50%
% Survival ([3]; 84 hours, peptide 5 mg/kg 24 hours after LPS): 100%
identified as useful peptide for treatment of radiation injury from cell-cycle studies in plants and in vitro proliferation studies ([4]; Results from Examples 9 and 10): useful
effect on cell-cycle marker (pCDG) and auxin-responsive marker (DR5::GUS) (in words) ([4]; seedlings incubated four and eight hours, 5 mg/ml peptide solution): clear effect on the tested markers
